# Assay results published in patent US12077503B2, “Substituted cyclic amides and their use as herbicides” (FMC CORPORATION, priority 2015, dated 2024).
# Columns and labels:
# Type in all cases: in vivo
# [1] = system: Kochia (Kochia scoparia); experiment: Test A preemergence; settings: Bassia scoparia, pre-emergence, 240 h, 0 to 100 scale where 0 is no effect and 100 is complete control, read-out: Kochia plant response rating
# Procedure, shortened: (§1)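 Ratings of 0 (no effect) to 100 (complete control) come from visual comparison with untreated controls roughly 10 d after treatment. Test chemicals, formulated in a non-phytotoxic solvent mixture with surfactant, were applied either as a preemergence directed soil spray on seeded soil or postemergence to one- to two-leaf plants 2 to 10 cm tall.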
# [2] = system: barnyardgrass (Echinochloa crus-galli); experiment: Test A preemergence; settings: Echinochloa crus-galli, pre-emergence, 240 h, 0 to 100 scale where 0 is no effect and 100 is complete control, read-out: Barnyardgrass plant response rating
# Procedure, shortened: as §1
# [3] = system: giant foxtail (Setaria faberii); experiment: Test A preemergence; settings: Setaria faberi, pre-emergence, 240 h, 0 to 100 scale where 0 is no effect and 100 is complete control, read-out: Foxtail, Giant plant response rating
# Procedure, shortened: as §1
# [4] = system: pigweed (Amaranthus retroflexus); experiment: Test A preemergence; settings: Amaranthus retroflexus, pre-emergence, 240 h, 0 to 100 scale where 0 is no effect and 100 is complete control, read-out: Pigweed plant response rating
# [5] = system: ragweed (common ragweed, Ambrosia elatior); experiment: Test A preemergence; settings: Ambrosia artemisiifolia, pre-emergence, 240 h, 0 to 100 scale where 0 is no effect and 100 is complete control, read-out: Ragweed plant response rating
# Procedure, shortened: as §1
# [6] = system: ryegrass, Italian (Italian ryegrass, Lolium multiflorum); experiment: Test A preemergence; settings: Lolium multiflorum, pre-emergence, 240 h, 0 to 100 scale where 0 is no effect and 100 is complete control, read-out: Ryegrass, Italian plant response rating
# Procedure, shortened: as §1
# [7] = system: Galium (catchweed bedstraw, Galium aparine); experiment: Test A postemergence; settings: Galium, post-emergence, 240 h
# Procedure, shortened: as §1
# [8] = system: Kochia (Kochia scoparia); experiment: Test A postemergence; settings: Bassia scoparia, post-emergence, 240 h
# Procedure, shortened: as §1
# [9] = system: barnyardgrass (Echinochloa crus-galli); experiment: Test A postemergence; settings: Echinochloa crus-galli, post-emergence, 240 h
# Procedure, shortened: as §1
# [10] = system: blackgrass (Alopecurus myosuroides); experiment: Test A postemergence; settings: Alopecurus myosuroides, post-emergence, 240 h
# Procedure, shortened: as §1
# [11] = system: corn (Zea mays); experiment: Test A postemergence; settings: Zea mays, post-emergence, 240 h
# Procedure, shortened: as §1
# [12] = system: giant foxtail (Setaria faberii); experiment: Test A postemergence; settings: Setaria faberi, post-emergence, 240 h
# Procedure, shortened: as §1
# [13] = system: pigweed (Amaranthus retroflexus); experiment: Test A postemergence; settings: Amaranthus retroflexus, post-emergence, 240 h
# Procedure, shortened: as §1
# [14] = system: ragweed (common ragweed, Ambrosia elatior); experiment: Test A postemergence; settings: Ambrosia artemisiifolia, post-emergence, 240 h
# Procedure, shortened: as §1
# [15] = system: ryegrass, Italian (Italian ryegrass, Lolium multiflorum); experiment: Test A postemergence; settings: Lolium multiflorum, post-emergence, 240 h
# Procedure, shortened: as §1
# [16] = system: wheat (Triticum aestivum); experiment: Test A postemergence; settings: Triticum aestivum, post-emergence, 240 h
# Procedure, shortened: as §1
# [17] = system: barnyardgrass (Echinochloa crus-galli); experiment: Test B flooded paddy test; settings: Echinochloa crus-galli, 250 g ai/ha, Flood; 0 to 100 scale where 0 is no effect and 100 is complete control; read-out: Barnyardgrass plant response rating
# Procedure, shortened: (§2)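 Visual ratings (0 none to 100 complete control) are relative to untreated plants, taken 13–15 d after treatment in a greenhouse. Test material went straight into floodwater standing 3 cm above the soil, kept constant, on plants at the 2-leaf stage.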
# [18] = system: ducksalad (Heteranthera limosa); experiment: Test B flooded paddy test; settings: Heteranthera limosa, 250 g ai/ha, Flood; 0 to 100 scale where 0 is no effect and 100 is complete control; read-out: Ducksalad plant response rating
# Procedure, shortened: as §2
# [19] = system: rice (Oryra sativa); experiment: Test B flooded paddy test; settings: Oryza sativa, 250 g ai/ha, Flood; 0 to 100 scale where 0 is no effect and 100 is complete control; read-out: Rice plant response rating
# Procedure, shortened: as §2
# [20] = system: sedge, umbrella (small-flower umbrella sedge, Cyperus difformis); experiment: Test B flooded paddy test; settings: Cyperus difformis, 250 g ai/ha, Flood; 0 to 100 scale where 0 is no effect and 100 is complete control; read-out: Sedge, Umbrella plant response rating
# Procedure, shortened: as §2
# [21] = 125 g ai/ha, preemergence, approx. 10 d
structure (smiles),measurement,setting,value
CN1C[C@H](c2cc(C(F)F)cs2)[C@@H](C(=O)Nc2cnccc2C(F)(F)F)C1=O [Compound 1091],pest or weed control at 31 g/ha,"[1]; 31 g ai/ha, Preemergence",20%
same,pest or weed control at 125 g/ha,[1]; [21],40%
same,pest or weed control at 31 g/ha,"[2]; 31 g ai/ha, Preemergence",0%
same,pest or weed control at 125 g/ha,[2]; [21],0%
same,pest or weed control at 31 g/ha,"[3]; 31 g ai/ha, Preemergence",50%
same,pest or weed control at 125 g/ha,[3]; [21],100%
same,pest or weed control at 31 g/ha,"[4]; 31 g ai/ha, Preemergence",10%
same,pest or weed control at 125 g/ha,[4]; [21],0%
same,pest or weed control at 31 g/ha,"[5]; 31 g ai/ha, Preemergence",100%
same,pest or weed control at 125 g/ha,[5]; [21],0%
same,pest or weed control at 31 g/ha,"[6]; 31 g ai/ha, Preemergence",0%
same,pest or weed control at 125 g/ha,[6]; [21],0%
same,pest or weed control at 125 g/ha,"[7]; 125 g ai/ha, postemergence, visual injury on 0 to 100 scale (0 no effect, 100 complete control), approx. 10 d, read-out: Galium plant response rating",0%
same,pest or weed control at 31 g/ha,"[7]; Postemergence, 31 g ai/ha, visual injury after approx. 10 d, 0 to 100 scale, 0 no effect, 100 complete control, read-out: Plant response rating, Galium",0%
same,pest or weed control at 125 g/ha,"[8]; 125 g ai/ha, postemergence, visual injury on 0 to 100 scale (0 no effect, 100 complete control), approx. 10 d, read-out: Kochia plant response rating",0%
same,pest or weed control at 31 g/ha,"[8]; Postemergence, 31 g ai/ha, visual injury after approx. 10 d, 0 to 100 scale, 0 no effect, 100 complete control, read-out: Plant response rating, Kochia",0%
same,pest or weed control at 125 g/ha,"[9]; 125 g ai/ha, postemergence, visual injury on 0 to 100 scale (0 no effect, 100 complete control), approx. 10 d, read-out: Barnyardgrass plant response rating",0%
same,pest or weed control at 31 g/ha,"[9]; Postemergence, 31 g ai/ha, visual injury after approx. 10 d, 0 to 100 scale, 0 no effect, 100 complete control, read-out: Plant response rating, Barnyardgrass",0%
same,pest or weed control at 125 g/ha,"[10]; 125 g ai/ha, postemergence, visual injury on 0 to 100 scale (0 no effect, 100 complete control), approx. 10 d, read-out: Blackgrass plant response rating",0%
same,pest or weed control at 31 g/ha,"[10]; Postemergence, 31 g ai/ha, visual injury after approx. 10 d, 0 to 100 scale, 0 no effect, 100 complete control, read-out: Plant response rating, Blackgrass",0%
same,plant injury at 125 g/ha,"[11]; 125 g ai/ha, postemergence, visual injury on 0 to 100 scale (0 no effect, 100 complete control), approx. 10 d, read-out: Corn plant response rating",0%
same,"Corn plant response rating (crop injury, 0 = no effect, 100 = complete kill) at 31 g/ha","[11]; Postemergence, 31 g ai/ha, visual injury after approx. 10 d, 0 to 100 scale, 0 no effect, 100 complete control",0%
same,pest or weed control at 125 g/ha,"[12]; 125 g ai/ha, postemergence, visual injury on 0 to 100 scale (0 no effect, 100 complete control), approx. 10 d, read-out: Foxtail, Giant plant response rating",0%
same,pest or weed control at 31 g/ha,"[12]; Postemergence, 31 g ai/ha, visual injury after approx. 10 d, 0 to 100 scale, 0 no effect, 100 complete control, read-out: Plant response rating, Foxtail, Giant",0%
same,pest or weed control at 125 g/ha,"[13]; 125 g ai/ha, postemergence, visual injury on 0 to 100 scale (0 no effect, 100 complete control), approx. 10 d, read-out: Pigweed plant response rating",30%
same,pest or weed control at 31 g/ha,"[13]; Postemergence, 31 g ai/ha, visual injury after approx. 10 d, 0 to 100 scale, 0 no effect, 100 complete control, read-out: Plant response rating, Pigweed",0%
same,pest or weed control at 125 g/ha,"[14]; 125 g ai/ha, postemergence, visual injury on 0 to 100 scale (0 no effect, 100 complete control), approx. 10 d, read-out: Ragweed plant response rating",0%
same,pest or weed control at 31 g/ha,"[14]; Postemergence, 31 g ai/ha, visual injury after approx. 10 d, 0 to 100 scale, 0 no effect, 100 complete control, read-out: Plant response rating, Ragweed",0%
same,pest or weed control at 125 g/ha,"[15]; 125 g ai/ha, postemergence, visual injury on 0 to 100 scale (0 no effect, 100 complete control), approx. 10 d, read-out: Ryegrass, Italian plant response rating",0%
same,pest or weed control at 31 g/ha,"[15]; Postemergence, 31 g ai/ha, visual injury after approx. 10 d, 0 to 100 scale, 0 no effect, 100 complete control, read-out: Plant response rating, Ryegrass, Italian",0%
same,plant injury at 125 g/ha,"[16]; 125 g ai/ha, postemergence, visual injury on 0 to 100 scale (0 no effect, 100 complete control), approx. 10 d, read-out: Wheat plant response rating",0%
same,plant injury at 31 g/ha,"[16]; Postemergence, 31 g ai/ha, visual injury after approx. 10 d, 0 to 100 scale, 0 no effect, 100 complete control, read-out: Plant response rating, Wheat",0%
same,pest or weed control at 250 g/ha,[17],0%
same,pest or weed control at 250 g/ha,[18],0%
same,pest or weed control at 250 g/ha,[19],0%
same,pest or weed control at 250 g/ha,[20],0%
